Entries after “also recorded” stand apart in the source; their conditions may differ.
Assays:
[1] = system: Vascular Endothelial Growth Factor (VEGF); assay: VEGF expression in HDPC supernatant (ELISA); format: cell-based, human; settings: 30 or 100 ppm, 1 day, FIG. 8
Procedure: HDPC were treated with Meloside A or L at concentrations of 30 or 100 ppm, respectively, for 1 day to obtain the cell supernatant. For comparison, HDPC that were not treated with either Meloside A or L were used as the negative control group, and HDPC treated with 100 μM Minoxidil were used as the positive control group.
The increase or decrease in VEGF expression level in the obtained cell supernatant was confirmed through an Enzyme-Linked Immunosorbent Assay (ELISA) method, and the results are shown in FIG. 8.

[2] = system: dermal papilla cells (HDPC); assay: Protection against DKK1-induced death of dermal papilla cells (CCK-8); format: cell-based, human; settings: 30 or 100 ppm for 1 day, then DKK1, FIG. 10
Procedure: (§1) Specifically, HDPC were treated with Meloside A or L at concentrations of 30 or 100 ppm, respectively, for 1 day, and then cell death was induced with DKK1 (dickkopf WNT signaling pathway inhibitor 1). For comparison, HDPC that were neither treated with Meloside A or L nor with DHT were used as the negative control group. HDPC treated with DHT but without Meloside A and L were used as the untreated group. HDPC treated with 100 μM Minoxidil or 5 mM NAC followed by DHT treatment were used as the positive control group.
(§2) CCK-8 (Cell Counting Kit-8, Dojindo, EU) reagent was added to the HDPC according to the manufacturer's protocol, and absorbance was measured at a wavelength of 450 nm using a microplate reader (BioTeK, USA) to confirm the cell viability of dermal papilla cells because of Meloside treatment, compared to the negative control group (treated with DMEM instead of Meloside A or L).

[3] = system: dermal papilla cells (HDPC); assay: Protection against DHT-induced death of dermal papilla cells (CCK-8); format: cell-based, human; settings: 30 or 100 ppm for 1 day, then DHT, FIG. 9
Procedure: as §1, with “Dihydrotestosterone (DHT),” for “DKK1 (dickkopf WNT signaling pathway inhibitor 1).”, “NAC (N-acetyl cysteine)” for “NAC”
as §2

[4] = system: human dermal papilla cells (HDPC); assay: Cytotoxicity / growth-proliferation of dermal papilla cells (CCK-8); format: cell-based; settings: 10, 30, 50, 100 ppm, 1 day, CCK-8, 450 nm, FIG. 1
Procedure: (§3) Human hair dermal papilla cells (HDPC), used in the test examples described below, were cultured in Dulbecco's Modified Eagle Medium (DMEM, WELGENE) supplemented with 10% Fetal Bovine Serum (FBS, WELGENE) and 1% antibiotics (Penicillin-Streptomycin, WELGENE) as the culture medium, in an incubator at 37° C., 5% CO2, and humid conditions.
Specifically, after treating human dermal papilla cells (HDPC) or human outer root sheath cells (ORS) with Meloside A or Meloside L at concentrations of 10, 30, 50, and 100 ppm for 1 day, CCK-8 (Cell Counting Kit-8, Dojindo, EU) reagent was added to the treated HDPC according to the manufacturer's protocol. Absorbance was then measured at a wavelength of 450 nm using a microplate reader (BioTeK, USA), and the extent of HDPC growth/proliferation by Meloside treatment was compared and confirmed against the negative control group (treated with DMEM instead of Meloside A or L).

[5] = system: reactive oxygen species (ROS); assay: DHT-induced intracellular reactive oxygen species in HDPC (DCF-DA fluorescence); format: cell-based, human; settings: 30 or 100 ppm with 100 μg/mL DHT, 24 hours, FIGS. 12 and 13
Procedure: The intracellular reactive oxygen species inhibition effect was evaluated using human hair dermal papilla cells (HDPC). Measurement was performed by utilizing the principle that the non-fluorescent substance 2′,7′-dichlorodihydrofluorescein diacetate (DCF-DA) reacts with intracellularly generated free radicals and oxidizes into the fluorescent substance 2′,7′-dichlorofluorescein (DCF).
Human dermal papilla cells were seeded into 12-well plates at 5.5×10^4 cells/well and cultured for 24 hours in a 37° C., 5% CO2 incubator. Subsequently, samples prepared at various concentrations were treated into each well and cultured for 23 hours in a 37° C., 5% CO2 incubator. For the treated groups, Meloside A or L at 30 or 100 ppm were treated along with DHT. For control groups, HDPC treated with 100 μg/mL DHT but without Meloside A and L, and untreated HDPC (neither Meloside A or L nor DHT) were used. […] After removing DCF-DA and washing twice with PBS, images were taken every 10 minutes for 30 minutes using a fluorescence microscope at Ex 485 nm and Em 535 nm. The level of intracellular reactive oxygen species generation was measured by quantifying fluorescence intensity in […] using Image J, thereby confirming the ROS reduction efficacy of Meloside.

Androgen Receptor (AR) = assay: Androgen receptor expression in DHT-treated HDPC (Western blot); format: cell-based, human; settings: HDPC pre-treated with 1 μM DHT, 30 or 100 ppm, 1 day, FIGS. 3 and 4
Procedure: as §3
Specifically, the following groups were prepared: (i) a negative control group, where neither Dihydrotestosterone (DHT) nor Meloside A and L were treated on human dermal papilla cells (HDPC); (ii) an untreated group, where 1 μM DHT was treated on HDPC, but neither Meloside A nor L was treated; (iii) a positive control group, where 1 μM DHT was treated on HDPC, followed by treatment with 100 μM Minoxidil instead of Meloside A and L; and (iv) a treated group, where HDPC were first treated with 1 μM DHT to activate androgen receptors, and then treated with Meloside A or L at concentrations of 30 or 100 ppm, respectively, for 1 day. After preparation, the HDPC from (i) to (iv) were lysed, and the increase or decrease in the expression level of Androgen Receptor (AR) was confirmed using the Western blot technique. Here, for the analysis of relative expression patterns for each sample, the expression level was normalized based on the expression level of Actin. […]

O=c1cc(-c2ccc(O)cc2)oc2cc(O)c([C@@H]3O[C@H](CO)[C@@H](O)[C@H](O)[C@H]3O[C@@H]3O[C@H](CO)[C@@H](O)[C@H](O)[C@H]3O)c(O)c12 [Meloside A, isovitexin 2″-O-glucoside]
VEGF expression level [1]: increase in VEGF expression; also recorded: superior to that of Meloside L | cell protective effect against DKK1 (cell viability) [2]: cell protective effect against DKK1 was confirmed | cell protective effect against DHT (cell viability) [3]: cell protective effect against DHT was confirmed | cell growth/proliferation (cytotoxicity) of HDPC vs negative control [4]: comparable levels of cell growth/proliferation to the negative control group | reactive oxygen species (ROS) generation [5]: reduction in reactive oxygen species (ROS) generation | androgen receptor (AR) expression level, normalized to Actin (Androgen Receptor (AR)): concentration-dependent; also recorded: superior effect in decreasing the expression level of androgen receptor (AR) compared to Meloside L

O=c1cc(-c2ccc(O)c(O)c2)oc2cc(O)c([C@@H]3O[C@H](CO)[C@@H](O)[C@H](O)[C@H]3O[C@@H]3O[C@H](CO)[C@@H](O)[C@H](O)[C@H]3O)c(O)c12 [Meloside L, isoorientin 2″-O-glucoside]
VEGF expression level [1]: increase in VEGF expression | cell protective effect against DKK1 (cell viability) [2]: no cell protective effect against DKK1 was observed | cell protective effect against DHT (cell viability) [3]: no cell protective effect against DHT was observed | cell growth/proliferation (cytotoxicity) of HDPC vs negative control [4]: comparable levels of cell growth/proliferation to the negative control group | reactive oxygen species (ROS) generation [5]: reduction in reactive oxygen species (ROS) generation | androgen receptor (AR) expression level, normalized to Actin (Androgen Receptor (AR)): concentration-dependent

From patent publication US20260232709A1, “COMPOSITION COMPRISING MELOSIDE FOR ALLEVIATING HAIR LOSS AND IMPROVING HAIR GROWTH” (MORECHEM CO., LTD., priority 2024, published 2026)
